This note sets out measurements from patent publication US20100098662A1, “TREATMENT OF LIVER DISEASES IN WHICH IRON PLAYS A ROLE IN PATHOGENESIS” (priority 2005, published 2010).

For data set [1], the system named is Long-Evans cinnamon (LEC) rat. The data set can be described thus: Spontaneous acute hepatitis in LEC rat model. To be noted: male LEC rats, oral 14 and 28 mg/kg/day. In kind it is in vivo. On the procedure:
Long-Evans cinnamon (LEC) rat is a mutant strain displaying hereditary hepatitis and spontaneous liver cancer. Compound I has been tested for efficacy on acute hepatitis in LEC rat model.
Methods: Compound I was administered orally to male LEC rats by gavage on does of 0, 14 and 28 mg/kg/day, starting at 6-week-old and continuing till 18-week-old. Each four rats were sacrificed on 9, 12, 14, 16 and 18-week-old in Compound I—treated groups and control group.
On sacrificing, peripheral blood was collected for monitoring the biochemical markers, including the serum alanine transaminase (ALT). Liver tissue were histologically examined.

Data set [2] deals with thalassemia patients (iron-overloaded). The data set can be described thus: ALT values of thalassemia patients after one year of treatment. It is filed as in vivo, human. On the procedure:
(§1) Patients were iron-overloaded patients and were treated with different doses of Compound I for one year.
(§2) ALT was measured according to standard biomedical techniques, e.g. using the International Federation of Clinical Chemistry reference method as described in Brinkmann T, Dreier J, Diekmann J, Gotting C, Klauke R, Schumann G, Kleesiek K. Alanine aminotransferase cut-off values for blood donor screening using the new International Federation of Clinical Chemistry reference method at 37 degrees C. Vox Sang. 2003 85(3): 159-64.
(§3) The baseline ALT value is defined as the patient ALT value determined for the patient at the stage of enrollment in the clinical trial, i.e. the ALT baseline value is the ALT value of the patient before starting Compound I treatment.

A short description of data set [3]: Clinical dose-escalation trial of Compound I: pharmacokinetics. It is filed as in vivo, human. On the procedure: (§4) A randomized, double-blind, placebo-controlled, dose-escalation trial of Compound I in 24 adult β-thalassemia patients in which the safety, tolerability, PK and cumulative iron balance of 12 days of Compound I are assessed (10 mg/kg (n=5), 20 mg/kg (n=6), 40 mg/kg (n=7), and placebo (n=6).

Data set [4] has as its system rare anemia patients (iron-overloaded). The data set can be described thus: ALT values of rare anemia patients after one year of treatment. In kind it is in vivo, human. On the procedure: as §1, §2, §3
The subject of data set [5] is adult β-thalassemia patients. In words: Clinical dose-escalation trial of Compound I: iron balance and efficiency of chelation. In kind it is in vivo, human. On the procedure: as §4
Efficiency of chelation is based on average daily net iron excretion, and is calculated as the ratio between […], relative to body weight. The theoretical amount of iron is obtained from the consideration that two molecules of Compound I are needed to chelate a single atom of iron. The molecular weight of Compound I being 373.4, and that of iron 55.85. The efficiency is therefore calculated as:
Efficiency=(Feexcr*2*373.4)/(DoseCompound×55.85)×100%) • DoseCompound and Feexcr are given in mg/kg body weight.

Regarding `O=C(O)c1ccc(-n2nc(-c3ccccc3O)nc2-c2ccccc2O)cc1` [Compound I, 4-[3,5-Bis-(2-hydroxyphenyl)-[1,2,4]-triazol-1-yl]benzoic acid], in data set [1], the “Hepatic iron accumulation assessed by Prussian blue staining vs control group” value was “markedly reduced”. Also, the “serum ALT level vs control group” value in data set [1] (at 18-week-old) was “significantly lower”. For the same molecule, the “Mean of ALT” value is 35.25 Units/liter in data set [2] (5 mg/kg/day); 26.62 Units/liter in data set [2] (10 mg/kg/day); 3.17 Units/liter in data set [2] (20 mg/kg/day); −23.56 Units/liter in data set [2] (30 mg/kg/day); 67.42 Units/liter in data set [4] (5 mg/kg/day); 14.22 Units/liter in data set [4] (10 mg/kg/day). Further, the figures for the “Mean of ALT” value in data set [4] (20 mg/kg/day) and in data set [4] (30 mg/kg/day) were −3.27 Units/liter and −14.19 Units/liter, respectively. The figures for the “Exposure (Cmax and AUC) increase with dose” value in data set [3] (after single dose administration) and in data set [3] (during steady state) were “slightly over-proportionally” and “approximately proportional”, respectively. The half-life in data set [3] (human, blood, at steady state, read-out: mean elimination half-life t1/2) is 12 to 13 h. Also, in data set [3] (β-thalassemia patients, 10, 20, 40 mg/kg, 12 days), the absorption result was “rapidly absorbed”. For the same molecule, the “Negative iron balance (average daily net iron excretion)” value is reported as “approximately 0.127 mg/kg/day” in data set [5] (10 mg/kg dose), around 0.343 mg/kg/day in data set [5] (20 mg/kg dose) and around 0.564 mg/kg/day in data set [5] (40 mg/kg dose). The efficiency of chelation amounted to 16% in data set [5] (10 mg/kg dose group), 22% in data set [5] (20 mg/kg) and 15% in data set [5] (40 mg/kg). The iron excretion entry in data set [5] (iron balance studies, almost entirely in the feces) is “dose-dependent increase”.
